Literature values as cited in US8367112B2, “Nanoparticulate carverdilol formulations” (Alkermes Pharma Ireland Limited, priority 2006, dated 2013).
Read-outs that look alike come from different tables or passages of the source.

Columns and labels:
[1] = in vivo, po

| solubility (95% ethanol) | solubility (dimethylsulfoxide) | solubility (ethyl ether) | solubility (gastric fluid (simulated, TS, pH 1.1)) | solubility (intestinal fluid (simulated, TS without pancreatin, pH 7.5)) | solubility (isopropanol) | solubility (methanol) | solubility (methylene chloride) | solubility (water) | apparent mean terminal elimination half-life [1] [h] | plasma levels relative to S(−)-carvedilol [1] | SMILES |
| --- | --- | --- | --- | --- | --- | --- | --- | --- | --- | --- | --- |
| sparingly soluble | freely soluble | slightly soluble | practically insoluble | practically insoluble | sparingly soluble | soluble | soluble | practically insoluble |  |  | COc1ccccc1OCCNCC(O)COc1cccc2[nH]c3ccccc3c12 (racemic) [carvedilol, (±)-1-(Carbazol-4-yloxy)-3-[[2-(o-methoxyphenoxy)ethyl]amino]-2-propanol] |
|  |  |  |  |  |  |  |  |  | 7 to 11 |  | COc1ccccc1OCCNC[C@H](O)COc1cccc2[nH]c3ccccc3c12 (single isomer, unassigned) [S(−)-enantiomer, S(−)-carvedilol] |
|  |  |  |  |  |  |  |  |  | 5 to 9 | 2-3 times higher | COc1ccccc1OCCNC[C@@H](O)COc1cccc2[nH]c3ccccc3c12 [R(+)-carvedilol] |
